# Where “and” joins values, the source holds several entries; their conditions need not be identical. Identical values can stand only once. Non-standard residues stand in square brackets, D forms with d. Residues, ends and D or L forms follow the SMILES beside them. pS = N[C@@H](COP(=O)(O)O)C(=O)O
# Key:
# LD50 in mouse = conditions: in vivo
# [1] = 14-day cynomolgus monkey toxicity test (overall); type: in vivo
# Procedure: The test was completed by Suzhou Xishan Zhongke Drugs Research and Development Co., Ltd. (Xishan, Suzhou, China). The study proposal was approved by the Institute Animal Care and Use Committee (IACUC, ID19012912). Cynomolgus monkeys (3-4 years old) were randomly divided into three groups (n = 4 per group, half male and female); and the monkeys were treated with solvent control (Mannitol in saline, 75 mg/kg/d), JP1 (45 mg/kg/day) and JP1 (150 mg/kg/day) for 14 days. The experiment was ended on 15th day and the animals were euthanasia. The relevant clinical parameters were determined on 7th and 13th day, respectively. […]
# The JP1 was provided by Hybio Pharmaceutical Co., Ltd. (Shenzhen, China); the production of small packaging preparation (100 mg/vial in freeze-dried powder, purity > 98%; -20 °C for storage and transportation) was completed under strict GMP conditions and quality control procedures for biological preparations. […] The relevant clinical indicators including symptoms, body weight, food intake, temperature, ophthalmology, electrocardiogram, blood routine examination, blood biochemistry, blood coagulation, urinalysis, immunotoxicity were determined on 7th and 13th, respectively. […]
# (§1) indicators in all animals, and the pathological observation of organs was not determined. […]
# [2] = Cynomolgus monkey toxicity test: body weight; type: in vivo
# Procedure: (§2) The test was completed by Suzhou Xishan Zhongke Drugs Research and Development Co., Ltd. (Xishan, Suzhou, China). The study proposal was approved by the Institute Animal Care and Use Committee (IACUC, ID19012912). Cynomolgus monkeys (3-4 years old) were randomly divided into three groups (n = 4 per group, half male and female); and the monkeys were treated with solvent control (Mannitol in saline, 75 mg/kg/d), JP1 (45 mg/kg/day) and JP1 (150 mg/kg/day) for 14 days. The experiment was ended on 15th day and the animals were euthanasia. The relevant clinical parameters were determined on 7th and 13th day, respectively. The observed parameters were including clinical symptoms, weight, food intake, body temperature, ophthalmology, electrocardiogram, blood routine examination, blood biochemistry, blood coagulation, urinalysis, immunotoxicity.
# (§3) Supplementary database files: Cynomolgus monkey toxicity test […]
# (§4) The study was conducted by a contract service in Suzhou Xishan Zhongke Drugs Research and Development Co., Ltd. (Xishan, Suzhou, China). All the use of animals were approved by the Institute Animal Care and Use Commttee, IACUC. IACUC no. :
# (§5) ID19012912. The veterinarian will supervise the breeding and welfare of the animals. The company follows the Guide for the Care and Use of Laboratory Animals (8th ed., 2011).
# (§6) Cynomolgus monkeys (3-4 years old) were randomly divided into three groups (n = 4 per group, two males and two females for each group); and treated q.d./i.v. with Mannitol (75 mg/kg/d in saline), JP1 (45 mg/kg/d) and JP1 (150 mg/kg/d) for 14 days, respectively. JP1 was dissolved in saline (100 mg/2 ml) and administered intravenously at a rate of 3 ml/min.
# The JP1 was provided by Hybio Pharmaceutical Co., Ltd. (Shenzhen, China); the production of small packaging preparation (100 mg/vial in freeze-dried powder, purity > 98%; -20 °C for storage and transportation) was completed under strict GMP conditions and quality control procedures for biological preparations. No recovery period was set for this test; the experimental model was ended on 15th day. […]
# (§7) relevant clinical indicators in two JP1 groups were no difference compared with those in […]
# (§8) Level (NOAEL) of JP1 was 150 mg/kg.
# [3] = Cynomolgus monkey toxicity test: blood routine examination; type: in vivo
# Procedure: as §2, §3, §4, §5, §6
# (§9) The JP1 was provided by Hybio Pharmaceutical Co., Ltd. (Shenzhen, China); the production of small packaging preparation (100 mg/vial in freeze-dried powder, purity > 98%; -20 °C for storage and transportation) was completed under strict GMP conditions and quality control procedures for biological preparations. No recovery period was set for this test; the experimental model was ended on 15th day. The relevant clinical indicators including symptoms, body weight, food intake, temperature, ophthalmology, electrocardiogram, blood routine examination, blood biochemistry, blood coagulation, urinalysis, immunotoxicity were determined on 7th and 13th, respectively. […]
# as §1, §7, §8
# [4] = Cynomolgus monkey toxicity test: immunotoxicity; type: in vivo
# Procedure: as §2, §3, §4, §5, §6, §9, §1, §7, §8
# in vivo = conditions: male, Sprague-Dawley, rat, ip, 100 mg/kg, half-life (t1/2)
# Procedure: The drug half-life (t1/2) is calculated by the formula t1/2 = 0.693/k, where k is the elimination rate constant (k = (Inc1-Inc2)/(t2-t1)).
# [5] = JP1 45 mg/kg/d i.v., D7, monkeys 1105,1106,2107,2108, 45 mg/kg/day
# [6] = JP1 150 mg/kg/d i.v., D7, monkeys 1209,1210,2211,2212, 150 mg/kg/day
# [7] = JP1 45 mg/kg/d i.v., D13, monkeys 1105,1106,2107,2108, 45 mg/kg/day
# [8] = JP1 150 mg/kg/d i.v., D7, monkeys 1209,1210,2211,2212
# [9] = JP1 150 mg/kg/d i.v., D13, monkeys 1209,1210,2211,2212, 150 mg/kg/day
compound,measurement,setting,value
CC(=O)N[C@@H](Cc1ccccc1)C(=O)N1CCC[C@H]1C(=O)NCC(=O)N[C@@H](COP(=O)(O)O)C(=O)N[C@@H](CC(=O)O)C(=O)N[C@@H](CCCNC(=N)N)C(=O)N[C@@H](Cc1ccccc1)C(=O)NCC(=O)NCC(=O)NCC(=O)NCC(=O)N[C@@H](CCCNC(=N)N)C(=O)NCC(=O)N[C@@H](CC(=O)O)C(N)=O [JP1] (Ac-FPG[pS]DRFGGGGRGD-NH2),LD50,LD50 in mouse,> 5000 mg/kg
same,"changes in detected parameters (clinical symptoms, weight, food intake, body temperature, ophthalmology, ECG, blood, urinalysis, immune-toxicity)","[1]; I.V. 45 or 150 mg/kg/day for 14 days, compared to control",no significant changes in all detected parameters
same,NOAEL at 14 days,"[1]; both sexes, in vivo, iv, 14 days, read-out: no observed adverse effect level (NOAEL)",150 mg/kg
same,Body weight,[2]; [5],2.1 kg and 2.2 kg and 2.3 kg
same,Body weight,"[2]; JP1 45 mg/kg/d i.v., D14, monkeys 1105,1106,2107,2108, 45 mg/kg/day",2.5 kg and 2.4 kg
same,Body weight,[2]; [6],2.4 kg and 2.2 kg and 2.3 kg
same,Body weight,"[2]; JP1 150 mg/kg/d i.v., D14, monkeys 1209,1210,2211,2212, 150 mg/kg/day",2.2 kg and 2.3 kg and 2.6 kg
same,BASO %,[3]; [5],0.1% and 0.0%
same,EO %,[3]; [5],0.4% and 0.0% and 0.9% and 0.5%
same,HCT,[3]; [5],34.5% and 36.0% and 39.6% and 37.9%
same,HGB,[3]; [5],118 g/L and 111 g/L and 119 g/L and 104 g/L
same,LYMPH %,[3]; [5],17.9% and 15.8% and 30.8% and 26.7%
same,MCH,[3]; [5],23.1 pg and 24.5 pg and 23.4 pg and 23.2 pg
same,MCHC,[3]; [5],311 g/L and 308 g/L and 301 g/L
same,MCV,[3]; [5],79.5 fL and 77.0 fL and 78.0 fL and 74.3 fL
same,MONO %,[3]; [5],2.6% and 2.2% and 3.8% and 2.0%
same,NEUT %,[3]; [5],81.6% and 79.8% and 64.5% and 70.2%
same,NEUT#,[3]; [5],9.22 109/L and 12.27 109/L and 11.67 109/L and 7.64 109/L
same,PLT,[3]; [5],476 109/L and 539 109/L and 485 109/L and 393 109/L
same,RBC,[3]; [5],5.10 1012/L and 4.53 1012/L and 5.08 1012/L and 4.48 1012/L
same,RET%,[3]; [5],0.68% and 2.83% and 1.78% and 2.67%
same,WBC,[3]; [5],15.04 109/L and 11.55 109/L and 18.07 109/L and 10.87 109/L
same,BASO %,[3]; [7],0.0% and 0.1%
same,EO %,[3]; [7],1.2% and 1.9% and 0.3% and 2.5%
same,HCT,[3]; [7],40.1% and 36.5% and 39.2% and 42.2%
same,HGB,[3]; [7],121 g/L and 113 g/L and 115 g/L and 127 g/L
same,LYMPH %,[3]; [7],39.5% and 40.7% and 28.2% and 42.7%
same,MCH,[3]; [7],25.3 pg and 23.1 pg and 23.9 pg and 23.3 pg
same,MCHC,[3]; [7],302 g/L and 310 g/L and 293 g/L and 301 g/L
same,MCV,[3]; [7],83.7 fL and 74.5 fL and 81.5 fL and 77.4 fL
same,MONO %,[3]; [7],7.1% and 3.5% and 4.4% and 4.8%
same,NEUT %,[3]; [7],52.2% and 53.8% and 67.0% and 49.9%
same,PLT,[3]; [7],449 109/L and 489 109/L and 561 109/L and 590 109/L
same,RBC,[3]; [7],4.79 1012/L and 4.90 1012/L and 4.81 1012/L and 5.45 1012/L
same,RET%,[3]; [7],3.65% and 0.95% and 3.41% and 1.99%
same,BASO %,[3]; [8],0.1%
same,BASO#,[3]; [8],0.01 109/L
same,EO %,[3]; [6],0.1% and 0.4% and 0.6%
same,HCT,[3]; [6],37.0% and 38.5% and 37.2% and 34.6%
same,HGB,[3]; [6],117 g/L and 112 g/L and 110 g/L and 106 g/L
same,LYMPH#,[3]; [6],3.39 109/L and 3.63 109/L and 4.19 109/L and 2.35 109/L
same,MCH,[3]; [6],24.4 pg and 23.3 pg and 23.4 pg and 21.8 pg
same,MCHC,[3]; [6],316 g/L and 291 g/L and 296 g/L and 306 g/L
same,MCV,[3]; [6],77.2 fL and 80.0 fL and 79.1 fL and 71.2 fL
same,MONO %,[3]; [6],3.4% and 4.0% and 2.4%
same,MONO#,[3]; [6],0.53 109/L and 0.65 109/L and 0.50 109/L and 0.39 109/L
same,NEUT %,[3]; [6],74.4% and 77.1% and 61.7% and 82.9%
same,NEUT#,[3]; [6],11.48 109/L and 14.75 109/L and 7.71 109/L and 13.42 109/L
same,PLT,[3]; [6],457 109/L and 540 109/L and 391 109/L and 474 109/L
same,RBC,[3]; [6],4.79 1012/L and 4.81 1012/L and 4.70 1012/L and 4.86 1012/L
same,RET#,[3]; [6],44.1 109/L and 70.7 109/L and 81.8 109/L and 74.4 109/L
same,RET%,[3]; [6],0.92% and 1.47% and 1.74% and 1.53%
same,WBC,[3]; [6],15.42 109/L and 19.12 109/L and 12.48 109/L and 16.18 109/L
same,BASO %,[3]; [9],0.1% and 0.0%
same,EO %,[3]; [9],1.7% and 0.3% and 0.8% and 1.5%
same,HCT,[3]; [9],38.8% and 38.3% and 37.7% and 36.9%
same,HGB,[3]; [9],109 g/L and 115 g/L and 121 g/L and 111 g/L
same,LYMPH %,[3]; [9],30.4% and 27.4% and 43.1% and 40.0%
same,LYMPH#,[3]; [9],4.07 109/L and 5.06 109/L and 2.56 109/L and 4.46 109/L
same,MCH,[3]; [9],23.7 pg and 21.4 pg and 24.5 pg and 23.8 pg
same,MCHC,[3]; [9],295 g/L and 296 g/L and 316 g/L and 294 g/L
same,MCV,[3]; [9],80.2 fL and 72.3 fL and 77.7 fL and 80.9 fL
same,MONO %,[3]; [9],6.3% and 6.4% and 4.1% and 7.8%
same,NEUT %,[3]; [9],65.9% and 52.0% and 50.6% and 61.5%
same,PLT,[3]; [9],357 109/L and 548 109/L and 451 109/L and 510 109/L
same,RBC,[3]; [9],4.60 1012/L and 5.37 1012/L and 4.93 1012/L and 4.66 1012/L
same,RET%,[3]; [9],1.63% and 2.23% and 2.58% and 1.36%
same,WBC,[3]; [9],9.44 109/L and 12.65 109/L and 8.41 109/L and 16.30 109/L
same,CD3+CD4+,[4]; [5],14.420% and 14.760% and 20.160% and 13.220%
same,CD3+CD8+,[4]; [5],27.140% and 25.500% and 32.040% and 35.620%
same,CD3+CD4+,[4]; [7],13.100% and 19.100% and 14.180% and 13.220%
same,CD3+CD8+,[4]; [7],41.820% and 43.140% and 47.160% and 31.220%
same,CD3+CD8+,[4]; [6],35.120% and 32.940% and 27.060% and 33.660%
same,CD3+CD4+,[4]; [9],24.420% and 20.280% and 28.260% and 22.580%
same,CD3+CD8+,[4]; [9],40.460% and 36.280% and 38.920% and 46.260%
same,half-life,in vivo,~1.32 h
